Values joined by “and” are separate entries in the source; they are usually repeats but may differ in a detail not shown here. Equal entries are not always repeated. Toxic doses and inconclusive results are not listed. No stated cut-off is given here; in the data, active means T/C of 150% or more; inactive means T/C below 125%.
Tested on: L1210 leukemia ip in BDF1 mice, survival T/C
Experiment: NCI In Vivo Anticancer Drug Screen. Data for tumor model L1210 Leukemia (intraperitoneal) in B6D2F1 (BDF1) mice
Details: endpoint: mean survival time, higher = longer survival
Method in brief: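 Tumor cells were implanted, animals were treated, and survival was followed. The result divides the treated measurement by the vehicle-control measurement.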

[1] = dose: 100.0 mg/kg/injection, schedule: Q01DX009 (ip), vehicle: Klucel (hydroxypropylcellulose) (HPC)
[2] = dose: 200.0 mg/kg/injection, schedule: Q01DX009 (ip), vehicle: Klucel (hydroxypropylcellulose) (HPC)
[3] = dose: 25.0 mg/kg/injection, schedule: Q04DX003 (ip), vehicle: saline
[4] = dose: 100.0 mg/kg/injection, schedule: Q01DX009 (ip), vehicle: saline with Tween-80
[5] = dose: 100.0 mg/kg/injection, schedule: Q04DX003 (ip), vehicle: saline with Tween-80
[6] = dose: 200.0 mg/kg/injection, schedule: Q01DX009 (ip), vehicle: saline with Tween-80
[7] = dose: 200.0 mg/kg/injection, schedule: Q04DX003 (ip), vehicle: saline with Tween-80
[8] = dose: 400.0 mg/kg/injection, schedule: Q04DX003 (ip), vehicle: saline with Tween-80
[9] = dose: 100.0 mg/kg/injection, schedule: Q01DX001 (ip), vehicle: Klucel (hydroxypropylcellulose) (HPC)
[10] = dose: 200.0 mg/kg/injection, schedule: Q01DX001 (ip), vehicle: Klucel (hydroxypropylcellulose) (HPC)
[11] = dose: 400.0 mg/kg/injection, schedule: Q01DX001 (ip), vehicle: Klucel (hydroxypropylcellulose) (HPC)
[12] = dose: 400.0 mg/kg/injection, schedule: Q01DX009 (ip), vehicle: Klucel (hydroxypropylcellulose) (HPC)
[13] = dose: 6.25 mg/kg/injection, schedule: Q01DX009 (ip), vehicle: saline
[14] = dose: 12.5 mg/kg/injection, schedule: Q01DX009 (ip), vehicle: saline
[15] = dose: 25.0 mg/kg/injection, schedule: Q01DX009 (ip), vehicle: saline

Measured: T/C

COc1cccc(/C=N\NC(=O)CCCC(=O)N/N=C/c2cccc(OC)c2OC)c1OC
inactive: dose: 50.0 mg/kg/injection, schedule: Q01DX001 (ip), vehicle: other 91 % of control | dose: 100.0 mg/kg/injection, schedule: Q01DX001 (ip), vehicle: other 91 % of control | dose: 200.0 mg/kg/injection, schedule: Q01DX001 (ip), vehicle: other 91 % of control | dose: 400.0 mg/kg/injection, schedule: Q01DX001 (ip), vehicle: other 91 % of control

CSc1cc(C)[o+]c(C)c1
inactive: dose: 12.5 mg/kg/injection, schedule: Q01DX009 (ip), vehicle: Klucel (hydroxypropylcellulose) (HPC) 108 % of control | dose: 25.0 mg/kg/injection, schedule: Q01DX009 (ip), vehicle: Klucel (hydroxypropylcellulose) (HPC) 112 % of control | dose: 50.0 mg/kg/injection, schedule: Q01DX009 (ip), vehicle: Klucel (hydroxypropylcellulose) (HPC) 105 % of control | dose: 75.0 mg/kg/injection, schedule: Q01DX009 (ip), vehicle: acetone 110 % of control | dose: 100.0 mg/kg/injection, schedule: Q01DX001 (ip), vehicle: saline 97 % of control | [1] 120 % of control | dose: 115.0 mg/kg/injection, schedule: Q01DX009 (ip), vehicle: acetone 103 % of control | dose: 170.0 mg/kg/injection, schedule: Q01DX009 (ip), vehicle: acetone 95 % of control | dose: 200.0 mg/kg/injection, schedule: Q01DX001 (ip), vehicle: saline 103 % of control | [2] 106 % of control | dose: 255.0 mg/kg/injection, schedule: Q01DX009 (ip), vehicle: acetone 110 % of control

Cc1cc(Cl)nc(Cl)n1
inactive: dose: 25.0 mg/kg/injection, schedule: Q04DX002 (ip), vehicle: saline 88 % of control | dose: 50.0 mg/kg/injection, schedule: Q04DX002 (ip), vehicle: saline 98 % of control | dose: 100.0 mg/kg/injection, schedule: Q04DX002 (ip), vehicle: saline 98 % of control

CCCCC1CCC(N)CC1 (stereo unspecified)
inactive: [3] 105 % of control | dose: 50.0 mg/kg/injection, schedule: Q04DX003 (ip), vehicle: saline 100 % of control | dose: 100.0 mg/kg/injection, schedule: Q04DX003 (ip), vehicle: saline 105 % of control

CSc1ccc(NC(=O)Oc2cc3ccccc3cc2C(=O)Nc2ccc(Cl)cc2)cc1
inactive: [4] 99 % of control and 86 % of control | dose: 100.0 mg/kg/injection, schedule: Q04DX002 (ip), vehicle: saline with Tween-80 88 % of control | [5] 90 % of control | [6] 111 % of control and 89 % of control | dose: 200.0 mg/kg/injection, schedule: Q04DX002 (ip), vehicle: saline with Tween-80 91 % of control and 92 % of control | [7] 92 % of control | dose: 400.0 mg/kg/injection, schedule: Q01DX009 (ip), vehicle: saline with Tween-80 95 % of control and 96 % of control | dose: 400.0 mg/kg/injection, schedule: Q04DX002 (ip), vehicle: saline with Tween-80 94 % of control and 103 % of control | [8] 87 % of control

Cc1cn(CCCCOC(=O)c2ccc([N+](=O)[O-])cc2)c(=O)[nH]c1=O
inactive: [9] 95 % of control | [10] 100 % of control | [11] 87 % of control

CCOC(=O)C(C#N)=P(c1ccccc1)(c1ccccc1)c1ccccc1
inactive: dose: 50.0 mg/kg/injection, schedule: Q01DX009 (ip), vehicle: saline with Tween-80 96 % of control | [4] 88 % of control | [6] 96 % of control

COc1ccc(/C=C/c2c3cc(OC)c(OC)cc3cc3c4cc(OC)c(OC)cc4cc[n+]23)cc1OC
inactive: dose: 100.0 mg/kg/injection, schedule: Q01DX001 (ip), vehicle: carboxymethylcellulose (CMC) 93 % of control and 108 % of control | dose: 100.0 mg/kg/injection, schedule: Q04DX002 (ip), vehicle: carboxymethylcellulose (CMC) 96 % of control and 89 % of control | dose: 100.0 mg/kg/injection, schedule: Q04DX003 (ip), vehicle: carboxymethylcellulose (CMC) 97 % of control | dose: 200.0 mg/kg/injection, schedule: Q01DX001 (ip), vehicle: carboxymethylcellulose (CMC) 97 % of control and 100 % of control | dose: 200.0 mg/kg/injection, schedule: Q04DX002 (ip), vehicle: carboxymethylcellulose (CMC) 100 % of control and 87 % of control | dose: 200.0 mg/kg/injection, schedule: Q04DX003 (ip), vehicle: carboxymethylcellulose (CMC) 92 % of control | dose: 400.0 mg/kg/injection, schedule: Q01DX001 (ip), vehicle: carboxymethylcellulose (CMC) 102 % of control and 90 % of control | dose: 400.0 mg/kg/injection, schedule: Q04DX002 (ip), vehicle: carboxymethylcellulose (CMC) 86 % of control and 92 % of control | dose: 400.0 mg/kg/injection, schedule: Q04DX003 (ip), vehicle: carboxymethylcellulose (CMC) 101 % of control

CC(C)(C)c1ccc(SC(=O)Nc2cccc(Cl)c2Cl)cc1
inactive: [1] 96 % of control | dose: 100.0 mg/kg/injection, schedule: Q04DX002 (ip), vehicle: Klucel (hydroxypropylcellulose) (HPC) 92 % of control | [2] 103 % of control | dose: 200.0 mg/kg/injection, schedule: Q04DX002 (ip), vehicle: Klucel (hydroxypropylcellulose) (HPC) 92 % of control | [12] 100 % of control | dose: 400.0 mg/kg/injection, schedule: Q04DX002 (ip), vehicle: Klucel (hydroxypropylcellulose) (HPC) 95 % of control

C(=N\Nc1nc2ccccc2s1)/c1ccccc1
inactive: [1] 95 % of control | [2] 102 % of control | [12] 100 % of control

Cc1ccc(OCCBr)cc1
inactive: [1] 93 % of control | [5] 100 % of control | [2] 101 % of control | [7] 107 % of control | [8] 98 % of control

CCC1(CC)COC(=O)NC1=O
inactive: dose: 1.56 mg/kg/injection, schedule: Q01DX009 (ip), vehicle: saline 105 % of control | dose: 3.12 mg/kg/injection, schedule: Q01DX009 (ip), vehicle: saline 116 % of control | [13] 103 % of control | dose: 6.25 mg/kg/injection, schedule: Q04DX003 (ip), vehicle: saline 101 % of control | [14] 103 % of control | dose: 12.5 mg/kg/injection, schedule: Q04DX003 (ip), vehicle: saline 101 % of control | [15] 97 % of control | [3] 87 % of control

c1ccc(Cc2cc(-c3ccccc3)n[nH]2)cc1
inactive: [9] 100 % of control | [1] 110 % of control | dose: 100.0 mg/kg/injection, schedule: Q04DX003 (ip), vehicle: Klucel (hydroxypropylcellulose) (HPC) 100 % of control | [10] 101 % of control | [2] 96 % of control | dose: 200.0 mg/kg/injection, schedule: Q04DX003 (ip), vehicle: Klucel (hydroxypropylcellulose) (HPC) 93 % of control | [11] 103 % of control | [12] 100 % of control | dose: 400.0 mg/kg/injection, schedule: Q04DX003 (ip), vehicle: Klucel (hydroxypropylcellulose) (HPC) 98 % of control

COc1ccc(/C=C/C(C)=O)cc1OC
inactive: [13] 91 % of control | [14] 100 % of control | [15] 91 % of control | dose: 50.0 mg/kg/injection, schedule: Q01DX009 (ip), vehicle: saline 87 % of control | dose: 100.0 mg/kg/injection, schedule: Q01DX009 (ip), vehicle: saline 88 % of control | dose: 200.0 mg/kg/injection, schedule: Q01DX009 (ip), vehicle: saline 88 % of control

O=C(Nc1cc(Cl)ccc1Oc1cc(Cl)c(Cl)cc1S(=O)(=O)O)Nc1cc(Cl)ccc1Oc1cc(Cl)c(Cl)cc1S(=O)(=O)O
inactive: dose: 18.75 mg/kg/injection, schedule: Q01DX009 (ip), vehicle: saline 97 % of control | dose: 37.5 mg/kg/injection, schedule: Q01DX009 (ip), vehicle: saline 90 % of control | dose: 75.0 mg/kg/injection, schedule: Q01DX001 (ip), vehicle: saline 106 % of control | dose: 75.0 mg/kg/injection, schedule: Q01DX009 (ip), vehicle: saline 94 % of control | dose: 150.0 mg/kg/injection, schedule: Q01DX001 (ip), vehicle: saline 97 % of control

Cc1c2cccc(Sc3ccc(F)cc3)c2c2c3c(cccc13)[S+](c1ccc(F)cc1)C2 (stereo unspecified)
inactive: dose: 12.5 mg/kg/injection, schedule: Q01DX001 (ip), vehicle: Klucel (hydroxypropylcellulose) (HPC) 100 % of control | dose: 25.0 mg/kg/injection, schedule: Q01DX001 (ip), vehicle: Klucel (hydroxypropylcellulose) (HPC) 94 % of control | dose: 50.0 mg/kg/injection, schedule: Q01DX001 (ip), vehicle: Klucel (hydroxypropylcellulose) (HPC) 90 % of control

NNC(=S)Nc1ccccc1
inactive: dose: 5.0 mg/kg/injection, schedule: Q01DX009 (ip), vehicle: saline with Tween-80 98 % of control
